From ChEMBL document CHEMBL1136483, “Synthesis and antiviral evaluation of 3-hydroxy-2-methylpyridin-4-one dideoxynucleoside derivatives” (Bioorg Med Chem Lett, 2003)

Experiments:
CCRF-CEM [1] = experiment: Compound was tested for anti-viral activity against HIV-1 in CEM cells; assay type: functional, cell-based; details: Homo sapiens
CCRF-CEM [2] = experiment: Compound was tested for anti-viral activity against HIV-2 in CEM cells; assay type: functional, cell-based; details: Homo sapiens
CCRF-CEM [3] = experiment: Compound concentration required to reduce viability of CEM cells; assay type: functional; details: Homo sapiens
HEL [4] = experiment: Compound concentration required to reduce viability of HEL cells; assay type: functional; details: Homo sapiens
HEL [5] = experiment: Compound was tested for anti-viral activity against HSV-1(KOS) in HEL cells; assay type: functional, cell-based; details: Homo sapiens
[6] = system: Human herpesvirus 2 (Herpes simplex virus type 2); experiment: Compound was tested for anti-viral activity against HSV-2(G) in HEL cells
HEL [7] = experiment: Compound was tested for anti-viral activity against HSV-1TK neg in HEL cells; assay type: functional, cell-based; details: Homo sapiens

| Compound | EC50 (CCRF-CEM [1]) | EC50 (CCRF-CEM [2]) | CC50 (CCRF-CEM [3]) | CC50 (HEL [4]) | EC50 (HEL [5]) | EC50 [6] | EC50 (HEL [7]) |
| --- | --- | --- | --- | --- | --- | --- | --- |
| Nc1ccn(C[C@@H](CO)OCP(=O)(O)O)c(=O)n1 [CIDOFOVIR] | > 200 µM | > 200 µM | > 200 µM | > 350 µM | 0.57 µM | – | – |
| Nc1nc2c(ncn2COC(CO)CO)c(=O)[nH]1 [GANCICLOVIR] | > 200 µM | > 200 µM | > 200 µM | > 400 µM | – | 0.06 µM | – |
| Cc1c(O)c(=O)ccn1[C@H]1CS[C@@H](CO)O1 (racemic) | > 80 µM | > 80 µM | 203 µM | > 100 µM | 32 µM | 81 µM | 80 µM |
| Nc1nc2c(ncn2COCCO)c(=O)[nH]1 [ACYCLOVIR] | > 200 µM | > 200 µM | > 200 µM | > 1700 µM | 0.32 µM | – | 88 µM |
| Cc1c(O)c(=O)ccn1[C@@H]1CC[C@@H](CO)O1 | > 50 µM | > 50 µM | > 50 µM | > 900 µM | 177 µM | 500 µM | 500 µM |
| Cc1c(O)c(=O)ccn1[C@H]1CC[C@@H](CO)O1 | > 50 µM | > 50 µM | 101 µM | > 900 µM | 40 µM | > 900 µM | 500 µM |
| Cc1c(O)c(=O)ccn1[C@@H]1CS[C@@H](CO)O1 (racemic) | > 80 µM | > 80 µM | 203 µM | > 400 µM | 40 µM | 90 µM | 95 µM |
